Measured values as given in US8349793B2, “Method for treatment of inflammatory disease and disorder” (Heal0r, Ltd., priority 2010, dated 2013).
Where no end group is shown, it is not given here.

How the values were obtained:
[1] = tested on: keratinocytes; test: Cytokine secretion in keratinocytes stimulated by LPS, TNFα or IL-17 (ELISA); type: cell-based, BALB/C mice
Procedure: To determine their effects, keratinocytes were derived from newborn BALB/C mice skin. The cells were incubated for 5 days in 24 wells plate. Cells were then incubated with PBS−/− as control or stimulated by LPS, TNFα, or IL-17. PKCα inhibitors were added as indicated. Medium containing secreted cytokines was collected after 48 hr and analyzed using ELISA. FIG. 40 is a tabular summary of cytokine secretion.
PKCδactivators were also shown to have an anti-inflammatory effect on keratinocytes and splenocytes. Keratinocytes were derived from newborn BALB/C mice skin. The cells were incubated for 5 days in 24 wells plate. Cells were then incubated with PBS−/− as control or stimulated by LPS or TNFα. The PKCδ inhibitor DAP-1 (SEQ ID NO: 16) was added. Medium containing secreted cytokines was collected after 48 hr and analyzed using ELISA. FIG. 35 is a tabular summary showing cytokine secretion in splenocytes stimulated with LPS. […] Cytokine secretion in keratinocytes stimulated by TNFα: following stimulation with 35 ng/ml TNFα. And treatment with 10 μg/ml of DAP-1, the cytokine levels of IL-1α, G-CSF, MIP-2 and KC were reduced by 95%, 70%, 20% and 30# respectively.
PKCε inhibitors were also shown to have an anti-inflammatory effect on keratinocytes. Keratinocytes were derived from newborn BALB/C mice skin. The cells were incubated for 5 days in 24 wells plate. Cells were then incubated with PBS−/− as control or stimulated by LPS or TNFα. The PKCεinhibitors EPIP-1 (SEQ ID NO: 20), EPIP-2 (SEQ ID NO: 21), or EPIP-4 (SEQ ID NO: 23) were added. Medium containing secreted cytokines was collected after 48 hr and analyzed using ELISA. FIGS. 36-39 show the results for secretion of specific cytokines while Table 8 summarizes cytokine secretion for the various PKCε inhibitors: […]

[2] = tested on: keratinocytes; test: Keratinocyte differentiation markers (Filaggrin, Loricrin, Keratin 1); type: cell-based, C57BL/6J mice; details: concentration: EPIP1 and DAP1 1 μg/ml, 10 μg/ml, EPIP2 10 μg/ml
Procedure: Keratinocytes derived from C57BL/6J mice were incubated in medium containing Ca^2+ to induce keratinocytes differentiation. Cells were then incubated in the presence of […] (1 μg/ml). Cells were harvested, run on SDS PAGE gel and immunoblotted using anti-Filaggrin (Fil), anti Loricrin (Lor) and anti-Keratin 1 (K1) antibody.
(§1) FIGS. 7 and 8 presents a summary of expression data in keratinocytes utilizing various peptide PKCα inhibitors: MPDY-1 (SEQ ID NO: 21) as well as data for the peptide PKCα inhibitors AIP-1 (SEQ ID NO: 3), AIP-2 (SEQ ID NO: 20), AWOT-1 (SEQ ID NO: 5) and PPDY-1 (SEQ ID NO: 22). […] FIG. 8 presents a summary of expression data in keratinocytes for various peptide PKCα inhibitors.

[3] = tested on: keratinocytes; test: Keratinocyte migration; type: cell-based; set-up: concentration or dose not given beside the values
[4] = tested on: keratinocytes; test: Keratinocyte proliferation in vitro (PCNA); type: cell-based, Balb/c mice; details: concentration not given
Procedure: Primary murine keratinocytes from 2 days old Balb/c mice were grown for 5 days to reach full confluence in 0.05 mM Ca^2+ MEM medium. HO/02/10 treatment (10^−6M and 10^−5M) was applied 6 hours prior to induction of differentiation. Cells were harvested, run on SDS PAGE gel and immunoblotted using anti-PCNA antibodies. In addition, C57Black mice, 8-10 weeks of age were subjected to full thickness wounding in the upper back area to induce epidermis remodeling and differentiation. Following the wounding, mice were treated daily with HO/02/10 (ranged 40-4000 mg/kg/day) for 7 days. At the termination point, mice were euthanized and upper back skin samples were fixed in 4% paraformaldehyde solution, following paraffin embedding and slide preparation. Skin samples were then subjected to immunohistochemical staining utilizing PCNA antibody. (n=18).
as §1

[5] = tested on: splenocytes; test: Cytokine secretion in splenocytes stimulated with LPS or TNFα (ELISA); type: cell-based, B6 mice
From the text: Inhibitory effect on activated splenocytes: Splenocytes were derived from B6 mice. […] Medium containing secreted cytokines was collected after 48 hr and analyzed using ELISA.

[6] = LPS 1 [μg/ml], peptide [10 μg/ml], 48 hr
[7] = TNF [35 ng/ml], peptide [10 μg/ml], 48 hr
[8] = keratinocytes, LPS (1 μg/ml) (EPIP4: printed 1 mg/ml), peptide concentration not given
[9] = keratinocytes, TNFa stim (35 ng/ml), 1 μg/ml of peptide (given for EPIP1, EPIP2, not for EPIP4), reduction printed with or without minus sign
[10] = Keratinocytes, Induction: TNFα (35 ng/ml), peptide (10 μg/ml)
[11] = Splenocytes, Induction: LPS (1 μg/ml) (given for DAP1 only), peptide (10 μg/ml)
[12] = LPS 1 [μg/ml], peptide [1 g/ml], 48 hr
[13] = TNF [35 ng/ml], peptide [1 g/ml], 48 hr
[14] = TNFα 25 ng/ml, peptide 1 μg/ml, 48 hr
[15] = TNFα 25 ng/ml, peptide 10 μg/ml, 48 hr
[16] = keratinocytes, 35 ng/ml TNFα, 10 μg/ml of DAP-1

For EAVSLKPT [EPIP-1], the “G-CSF secretion (change)” value [1, 6] was −70%, the “IL-6 secretion (change)” value [1, 6] was −55% and the “IP-10 secretion (change)” value [1, 6] was −60%. The “KC secretion (change)” value [1, 6] was −100%, the “G-CSF secretion (change)” value [1, 7] was −85% and the “IL-6 secretion (change)” value [1, 7] was −95%. The “IP-10 secretion (change)” value [1, 7] was “(−45%)”, the “G-CSF secretion (change)” value [1, 8] was −70% and the “IL-6 secretion (change)” value [1, 8] was −55%. The “IP-10 secretion (change)” value [1, 8] was −60%, the “KC secretion (change)” value [1, 8] was −100% and the “Reduces Chemokines IP 10” value [1, 9] was “Chemokines IP 10 (45%)”. The “Reduces proinflammatory cytokines IL-6” value [1, 9] was 95%, the “Reduces systemic cytokines G-SCF” value [1, 9] was −85% and the “Differentiation markers: granular differentiation” value [2] was “Reduces granular”. For the same sequence, the “Differentiation markers: spainous differentiation” value [2] was “Reduces granular”, the “Migration, Induces” value [3] was “(200%)” and the “Proliferation markers (PCNA)” value [4] was “Induces”.
With FARKGALRQ [AWOT] the “cytokine secretion from LPS and TNFα activated keratinocytes” value ([1]; FIGS. 19 to 23) was “decrease”, the “cytokine secretion from IL-17A activated keratinocytes” value ([1]; FIGS. 24 to 27) was “decrease” and the “cytokine secretion in keratinocytes” value ([1]; stimulated by LPS, TNFα, or IL-17, 48 hr) was “effective in decreasing cytokine secretion”.
With HFEDWIDHFEDWID [DAP-3] the “Reduces Chemokines: KC” value [1, 10] was “KC (25%),”, the “Reduces proinflamatory cytokine: IL-1a” value [1, 10] was “(50%)” and the “Reduces proinflamatory cytokine: IL-6” value [1, 10] was “(45%) and IL-1a”. The “Reduces systemic cytokine G-SCF” value [1, 10] was “SCF (25%),”, the “Reduces systemic cytokine GM-CSF” value [1, 10] was “SCF (25%),” and the “Differentiation markers: granular differentiation” value [2] was “induces”. The “Migration, Induces” value [3] was “(200%)”, the “Reduces Chemokines: MIP2” value ([5]; Splenocytes, DAP3 (10 μg/ml)) was “MIP2 (25%)” and the “reduces proinflamatory cytokine: IL-1α” value [5, 11] was “IL-1α (45%),”. The “reduces systemic cytokine: G-SCF” value [5, 11] was “G-SCF (25%),” and the “Proliferation markers (PCNA)” value [4] was “induces”.
In the case of LEPEAAAAAAGK [EPIP-4], the “G-CSF secretion (change)” value [1, 12] is reported as −75%, the “IL-6 secretion (change)” value [1, 12] is reported as −55% and the “IP-10 secretion (change)” value [1, 12] is reported as −60%. The “KC secretion (change)” value [1, 12] was −100%, the “G-CSF secretion (change)” value [1, 13] was “IL-6 (−100%), G-CSF (−100%), IP-10” and the “IL-6 secretion (change)” value [1, 13] was “IL-6 (−100%), G-CSF (−100%), IP-10”. For the same sequence, the “IP-10 secretion (change)” value [1, 13] was “(−80%)”, the “IL-6 secretion (change)” value [1, 8] was “Reduces proinflammatory IL-6 (−55%),” and the “IP-10 secretion (change)” value [1, 8] was −60%. The “KC secretion (change)” value [1, 8] was −100%, the “Reduces Chemokines IP 10” value [1, 9] was “Chemokines IP 10 (−80%)” and the “Reduces proinflammatory cytokines IL-6” value [1, 9] was “proinflammatory cytokines IL-6(−100%),”. The “Differentiation markers: granular differentiation” value [2] was “No influence”, the “Differentiation markers: spainous differentiation” value [2] was “reduces spainous” and the “Migration, Induces” value [3] was “(200%)”. For the same sequence, the “G-CSF (% reduction in secretion)” value [5, 14] was 45%, the “IFN-γ (% reduction in secretion)” value [5, 14] was 25% and the “IL-1a (% reduction in secretion)” value [5, 14] was 10%. For the same sequence, the “IL-6 (% reduction in secretion)” value [5, 14] was 15%, the “IL-10 (% reduction in secretion)” value [5, 14] was 30% and the “IL-17 (% reduction in secretion)” value [5, 14] was 85%. The “G-CSF (% reduction in secretion)” value [5, 15] was 20%, the “IFN-γ (% reduction in secretion)” value [5, 15] was 55% and the “IL-10 (% reduction in secretion)” value [5, 15] was 10%. For the same sequence, the “IL-17 (% reduction in secretion)” value [5, 15] was 90%, the “IP-10 (% reduction in secretion)” value [5, 15] was 15% and the “Proliferation markers (PCNA)” value [4] was “Induces”.
With MRAAEAAAAEPM [DAP-1] the “Reduces Chemokines: KC” value [1, 10] was “KC (32%), MIP2”, the “Reduces Chemokines: MIP2” value [1, 10] was “(30%)” and the “Reduces proinflamatory cytokine: IL-1a” value [1, 10] was “(40%)”. For the same sequence, the “Reduces proinflamatory cytokine: IL-6” value [1, 10] was “(20%) and IL-1a”, the “Reduces systemic cytokine GM-CSF” value [1, 10] was “GM-CSF (50%)” and the “cytokine level of G-CSF reduced by” value [1, 16] was 70%. For the same sequence, the “cytokine level of IL-1α reduced by” value [1, 16] was 95%, the “cytokine level of KC reduced by” value [1, 16] was 30 and the “cytokine level of MIP-2 reduced by” value [1, 16] was 20%. The “inflammatory cytokine secretion in keratinocytes” value ([1]; stimulated by LPS or TNFα) was “significantly decease”, the “Differentiation markers: granular differentiation” value [2] was “induces” and the “Migration, Induces” value [3] was “(200%)”. The “Reduces Chemokine: KC” value [5, 11] was “KC (32%), as”, the “reduces proinflamatory cytokine: IL-1α” value [5, 11] was “IL-1α (45%),” and the “reduces systemic cytokine: G-SCF” value [5, 11] was “(40%),”. The “induces antiinflamatory cytokine: IL 10” value ([5]; Splenocytes, Induction: LPS (1 μg/ml), DAP1 (1 μg/ml)) was “IL 10 (200%)”, the “Reduces TNFa expression” value ([5]; Splenocytes, Induction: LPS (1 μg/ml), DAP1 (10 μg/ml)) was “expression (28%)” and the “inflammatory cytokine secretion in splenocytes” value ([5]; stimulated with LPS) was “significantly decease”. The “Proliferation markers (PCNA)” value [4] was “Reduces”.
